± gives the standard deviation of the averaged measurements.
Legend:
Experiment in all cases: level (log10 ratio to DMSO vehicle control); higher = higher biomarker level / cell amount than vehicle control
[1] = compound: Cc1ccc(S(=O)(=O)OCC(F)(F)C(F)(F)C(F)(F)C(F)(F)C(F)(F)C(F)F)cc1 [1H,1H,7H-Perfluoroheptyl 4-methylbenzenesulfonate]; conditions: in DMSO
Description: (§1)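 BioMAP Diversity Plus panel of 12 human primary cell co-culture systems (3C, 4H, LPS, SAg, BT, BF4T, BE3C, CASM3C, HDF3CGF, KF3CT, MyoF, Mphg). Compounds were added 1 h before stimulation and left for 24 h (MyoF 48 h; BT 72 h for soluble read-outs or 6 d for IgG). Biomarkers were read by ELISA, cytotoxicity by SRB, PBMC viability and proliferation by Alamar Blue. Each well value was divided by the mean of 8 DMSO control wells on the same plate and log10 transformed; duplicate blinded samples were tested at 4 concentrations.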

[2] = compound: FC(F)(I)C(F)(F)C(F)(F)C(F)(F)C(F)(F)C(F)(F)I [1,6-Diiodoperfluorohexane]; conditions: 6700 nM; in DMSO
Description: as §1

Perfluoropinacol = compound: OC(C(F)(F)F)(C(F)(F)F)C(O)(C(F)(F)F)C(F)(F)F [Perfluoropinacol]; conditions: in DMSO
Description: as §1

[3] = compound: OCCCC(F)(F)C(F)(F)C(F)(F)C(F)(F)C(F)(F)C(F)(F)C(F)(F)C(F)(F)F [3-(Perfluorooctyl)propanol]; conditions: 6700 nM; in DMSO
Description: as §1

[4] = compound: FC(F)(F)COC(OCC(F)(F)F)OCC(F)(F)F [tris(Trifluoroethoxy)methane]; conditions: in DMSO
Description: as §1

[5] = compound: C=CC(=O)OCC(F)(F)C(F)(F)C(F)(F)C(F)(F)C(F)(F)C(F)(F)C(F)(F)C(F)F [1H,1H,9H-Perfluorononyl acrylate]; conditions: in DMSO
Description: as §1

[6] = compound: C=CC(=O)OCC(F)(F)C(F)(F)C(F)(F)C(F)(F)COC(=O)C=C [1H,1H,6H,6H-Perfluorohexane-1,6-diol diacrylate]; conditions: 6700 nM; in DMSO
Description: as §1

[7] = compound: OCC(F)(F)C(F)(F)C(F)(F)C(F)(F)C(F)(F)C(F)(F)F [6:1 Fluorotelomer alcohol]; conditions: in DMSO
Description: as §1

[8] = compound: FC(F)(F)C(F)(F)C(F)(F)C(F)(F)CCI [1H,1H,2H,2H-Perfluorohexyl iodide]; conditions: in DMSO
Description: as §1

| Test System | level (log10) ([1]; 6700 nM) | level (log10) ([1]; 20000 nM) | level (log10) ([1]; 60000 nM) | level (log10) [2] | level (log10) (Perfluoropinacol; 6700 nM) | level (log10) (Perfluoropinacol; 20000 nM) | level (log10) [3] | level (log10) ([4]; 6700 nM) | level (log10) ([4]; 20000 nM) | level (log10) ([4]; 60000 nM) | level (log10) ([5]; 6700 nM) | level (log10) ([5]; 20000 nM) | level (log10) ([5]; 60000 nM) | level (log10) [6] | level (log10) ([7]; 6700 nM) | level (log10) ([7]; 20000 nM) | level (log10) ([7]; 60000 nM) | level (log10) ([8]; 6700 nM) | level (log10) ([8]; 20000 nM) | level (log10) ([8]; 60000 nM) |
| --- | --- | --- | --- | --- | --- | --- | --- | --- | --- | --- | --- | --- | --- | --- | --- | --- | --- | --- | --- | --- |
| MyoF:Collagen III | -0.0075 ± 0.00071 | -0.0495 ± 0.022 | -0.056 ± 0.02 | -0.527 | -0.0405 ± 0.011 | -0.136 ± 0.0014 | -0.0205 ± 0.00071 | 0.0035 ± 0.0035 | -0.0005 ± 0.019 | 0.009 ± 0.0042 | 0.0015 ± 0.005 | -0.029 ± 0.011 | -0.102 ± 0.0014 | -0.037 ± 0.045 | -0.005 | -0.0015 ± 0.005 | 0.0105 ± 0.005 | 0.0045 ± 0.0092 | -0.007 ± 0.0014 | -0.007 ± 0.021 |
| 3C:CD62E/E-Selectin | -0.0085 ± 0.005 | -0.03 ± 0.0057 | -0.081 ± 0.016 | 0.005 | -0.007 ± 0.013 | -0.0605 ± 0.03 | -0.024 ± 0.0099 | -0.022 ± 0.0014 | -0.0185 ± 0.0078 | -0.0245 ± 0.0035 | -0.005 | -0.019 ± 0.0099 | -0.014 ± 0.018 | -0.066 ± 0.0057 | -0.001 ± 0.0099 | -0.011 ± 0.0085 | 0.0125 ± 0.0078 | -0.003 ± 0.0042 | -0.0225 ± 0.018 | 0.005 ± 0.014 |
| KF3CT:uPA | 0.006 ± 0.021 | -0.036 ± 0.023 | -0.0335 ± 0.022 | -0.002 | 0.0065 ± 0.035 | 0.019 ± 0.021 | -0.0045 ± 0.025 | -0.0005 ± 0.043 | -0.011 ± 0.018 | -0.014 ± 0.023 | -0.0285 ± 0.012 | -0.005 ± 0.025 | -0.0395 ± 0.013 | -0.057 ± 0.0057 | -0.0045 ± 0.0092 | -0.002 ± 0.018 | 0.0085 ± 0.025 | -0.001 ± 0.02 | 0.0045 ± 0.013 | -0.005 ± 0.0099 |
| HDF3CGF:TIMP-1 | -0.026 ± 0.027 | -0.0285 ± 0.047 | -0.023 ± 0.025 | -0.077 | 0.015 ± 0.027 | 0.0205 ± 0.032 | -0.105 ± 0.052 | -0.0195 ± 0.047 | 0.011 ± 0.02 | -0.001 ± 0.042 | 0.001 ± 0.042 | -0.0005 ± 0.04 | -0.0165 ± 0.047 | -0.203 ± 0.0021 | -0.009 ± 0.0085 | -0.022 | -0.014 ± 0.027 | 0.012 ± 0.037 | -0.0115 ± 0.05 | -0.065 ± 0.083 |
| MyoF:Collagen IV | 0.0145 ± 0.022 | 0.0265 ± 0.046 | 0.0665 ± 0.077 | 0.063 | 0.0385 ± 0.005 | 0.165 ± 0.0028 | -0.0385 ± 0.029 | -0.026 ± 0.0042 | -0.027 ± 0.02 | -0.0075 ± 0.03 | 0.02 ± 0.0014 | 0.015 ± 0.024 | 0.0035 ± 0.021 | -0.0715 ± 0.015 | -0.013 ± 0.0014 | -0.0335 ± 0.016 | 0.012 ± 0.02 | 0.011 ± 0.031 | 0.024 ± 0.017 | 0.021 ± 0.05 |
| 3C:CD142/Tissue Factor | 0.0065 ± 0.015 | -0.0025 ± 0.021 | -0.0445 ± 0.036 | -0.001 | -0.0805 ± 0.026 | -0.158 ± 0.0035 | -0.054 ± 0.016 | -0.0195 ± 0.07 | -0.009 ± 0.052 | -0.028 | -0.007 ± 0.0028 | -0.0145 ± 0.016 | -0.024 ± 0.033 | -0.134 ± 0.04 | -0.007 ± 0.0014 | 0.004 ± 0.014 | 0.0005 ± 0.026 | -0.0125 ± 0.028 | 0.0155 ± 0.047 | 0.0725 ± 0.037 |
| KF3CT:CXCL8/IL-8 | -0.005 ± 0.0028 | -0.103 ± 0.013 | -0.04 ± 0.014 | -0.071 | -0.018 ± 0.011 | -0.005 ± 0.0042 | 0.003 ± 0.0057 | 0.002 ± 0.011 | 0.007 ± 0.013 | 0.012 ± 0.0014 | -0.0015 ± 0.0092 | 0.016 ± 0.0028 | 0.012 ± 0.033 | 0.0005 ± 0.021 | -0.0005 ± 0.025 | -0.0045 ± 0.023 | 0.0025 ± 0.015 | 0.0135 ± 0.044 | 0.0355 ± 0.042 | 0.0315 ± 0.047 |
| lMphg:SRB-Mphg | 0.033 ± 0.0028 | -0.013 ± 0.03 | 0.0155 ± 0.036 | -0.023 | -0.015 ± 0.0099 | -0.05 ± 0.0028 | -0.049 ± 0.072 | -0.026 ± 0.013 | -0.038 ± 0.044 | -0.008 ± 0.027 | -0.1115 ± 0.00071 | -0.082 ± 0.11 | 0.0085 ± 0.097 | -0.0115 ± 0.084 | -0.0015 ± 0.0064 | -0.02 ± 0.014 | -0.0595 ± 0.054 | -0.0005 ± 0.03 | -0.004 ± 0.031 | 0.0005 ± 0.025 |
| BE3C:Keratin 8/18 | -0.006 ± 0.0085 | -0.006 ± 0.048 | -0.0065 ± 0.013 | -0.018 | -0.0145 ± 0.00071 | -0.019 ± 0.0028 | 0.0085 ± 0.033 | -0.0035 ± 0.019 | -0.0215 ± 0.021 | 0.01 ± 0.0057 | -0.037 ± 0.011 | -0.0165 ± 0.005 | -0.0355 ± 0.04 | 0.0075 ± 0.005 | 0.0055 ± 0.036 | -0.0035 ± 0.057 | -0.0125 ± 0.071 | 0 ± 0.0099 | -0.0095 ± 0.013 | -0.006 ± 0.0014 |
| HDF3CGF:CXCL11/I-TAC | -0.005 ± 0.027 | 0.036 ± 0.057 | -0.001 ± 0.092 | -0.434 | -0.062 ± 0.041 | -0.234 ± 0.015 | -0.367 ± 0.096 | -0.01 ± 0.0014 | -0.0125 ± 0.021 | -0.0145 ± 0.026 | -0.014 ± 0.0014 | -0.066 ± 0.033 | -0.214 ± 0.11 | -0.574 ± 0.078 | -0.009 ± 0.016 | -0.014 ± 0.0071 | -0.22 ± 0.35 | 0.006 ± 0.011 | -0.0165 ± 0.012 | -0.0835 ± 0.00071 |
| lMphg:CD62E/E-Selectin | -0.0225 ± 0.0064 | 0.022 ± 0.0014 | 0.0635 ± 0.019 | 0.033 | 0.0515 ± 0.013 | -0.139 ± 0.018 | -0.0425 ± 0.066 | 0.023 ± 0.082 | -0.0245 ± 0.076 | -0.0085 ± 0.076 | 0 ± 0.0099 | -0.004 ± 0.02 | -0.01 ± 0.017 | -0.044 ± 0.021 | 0.009 ± 0.024 | -0.008 ± 0.011 | -0.002 ± 0.023 | -0.021 ± 0.0071 | -0.0105 ± 0.026 | 0.0315 ± 0.0064 |
| CASM3C:Proliferation | -0.009 ± 0.031 | 0.035 ± 0.064 | -0.0075 ± 0.025 | -0.119 | -0.02 ± 0.013 | -0.122 ± 0.035 | -0.026 ± 0.033 | -0.033 ± 0.021 | -0.042 ± 0.0014 | 0.021 ± 0.027 | 0.03 ± 0.034 | 0.0175 ± 0.057 | -0.03 ± 0.093 | -0.0005 ± 0.037 | 0.02 ± 0.037 | 0.0125 ± 0.0078 | -0.664 ± 0.24 | -0.01 ± 0.0071 | -0.0155 ± 0.016 | -0.0535 ± 0.0064 |
| lMphg:CCL3/MIP-1alpha | -0.007 ± 0.0014 | 0.0145 ± 0.0021 | 0.0465 ± 0.033 | -0.016 | 0.116 ± 0.047 | 0.116 ± 0.062 | -0.018 ± 0.0014 | -0.03 ± 0.021 | -0.035 ± 0.024 | -0.0245 ± 0.018 | 0.015 | 0.012 ± 0.023 | 0.061 ± 0.0028 | -0.0045 ± 0.07 | 0.009 ± 0.017 | -0.0095 ± 0.036 | 0.0235 ± 0.083 | -0.0185 ± 0.00071 | -0.0515 ± 0.023 | -0.013 ± 0.014 |

— the supplement of paper PMC10331698
